Molecules are shown by their SMILES. Activity calls are given as the source filed them. How the calls were made is not given here.

In this data set the test system is CCRIS mutagenicity, Ames/micronucleus/aberration tests. Briefly: CCRIS mutagenicity studies.

Regarding `C=CC(=O)OC`, the mutagenic call runs as follows: (Test System: AMES SALMONELLA TYPHIMURIUM, Strain/Indicator: TA97, Metabolic Activation: HAMSTER, LIVER, S-9, AROCLOR 1254 (10%), Method: PREINCUBATION) “inactive; negative”; (Test System: AMES SALMONELLA TYPHIMURIUM, Strain/Indicator: TA97, Metabolic Activation: HAMSTER, LIVER, S-9, AROCLOR 1254 (30%), Method: PREINCUBATION) “inactive; negative”; (Test System: AMES SALMONELLA TYPHIMURIUM, Strain/Indicator: TA97, Metabolic Activation: NONE, Method: PREINCUBATION) “inactive; negative”; (Test System: AMES SALMONELLA TYPHIMURIUM, Strain/Indicator: TA97, Metabolic Activation: RAT, LIVER, S-9, AROCLOR 1254 (10 OR 30%), Method: PREINCUBATION) “inactive; negative”; (Test System: AMES SALMONELLA TYPHIMURIUM, Strain/Indicator: TA98, Metabolic Activation: HAMSTER, LIVER, S-9, AROCLOR 1254 (10%), Method: PREINCUBATION) “inactive; negative”; (Test System: AMES SALMONELLA TYPHIMURIUM, Strain/Indicator: TA98, Metabolic Activation: HAMSTER, LIVER, S-9, AROCLOR 1254 (30%), Method: PREINCUBATION) “inactive; negative”. Besides, the mutagenic call is, setting by setting: (Test System: AMES SALMONELLA TYPHIMURIUM, Strain/Indicator: TA98, Metabolic Activation: NONE, Method: PREINCUBATION) “inactive; negative”; (Test System: AMES SALMONELLA TYPHIMURIUM, Strain/Indicator: TA98, Metabolic Activation: NONE, Method: STANDARD PLATE) “inactive; negative”; (Test System: AMES SALMONELLA TYPHIMURIUM, Strain/Indicator: TA98, Metabolic Activation: RAT, LIVER, S-9, AROCLOR 1254 (10%), Method: PREINCUBATION) “inactive; negative”; (Test System: AMES SALMONELLA TYPHIMURIUM, Strain/Indicator: TA98, Metabolic Activation: RAT, LIVER, S-9, AROCLOR 1254 (30%), Method: PREINCUBATION) “inactive; negative”; (Test System: AMES SALMONELLA TYPHIMURIUM, Strain/Indicator: TA98, Metabolic Activation: RAT, LIVER, S-9, AROCLOR 1254, Method: STANDARD PLATE) “inactive; negative”; (Test System: AMES SALMONELLA TYPHIMURIUM, Strain/Indicator: TA98, Metabolic Activation: RAT, LIVER, S-9, SODIUM PHENOBARBITAL, Method: STANDARD PLATE) “inactive; negative”. In addition, the mutagenic call runs as follows: (Test System: AMES SALMONELLA TYPHIMURIUM, Strain/Indicator: TA100, Metabolic Activation: HAMSTER, LIVER, S-9, AROCLOR 1254 (10%), Method: PREINCUBATION) “inactive; negative”; (Test System: AMES SALMONELLA TYPHIMURIUM, Strain/Indicator: TA100, Metabolic Activation: HAMSTER, LIVER, S-9, AROCLOR 1254 (30%), Method: PREINCUBATION) “inactive; negative”; (Test System: AMES SALMONELLA TYPHIMURIUM, Strain/Indicator: TA100, Metabolic Activation: NONE, Method: PREINCUBATION) “inactive; negative”; (Test System: AMES SALMONELLA TYPHIMURIUM, Strain/Indicator: TA100, Metabolic Activation: NONE, Method: STANDARD PLATE) “inactive; negative”; (Test System: AMES SALMONELLA TYPHIMURIUM, Strain/Indicator: TA100, Metabolic Activation: RAT, LIVER, S-9, AROCLOR 1254 (10 OR 30%), Method: PREINCUBATION) “inactive; negative”; (Test System: AMES SALMONELLA TYPHIMURIUM, Strain/Indicator: TA100, Metabolic Activation: RAT, LIVER, S-9, AROCLOR 1254, Method: PREINCUBATION) “inactive; negative”. Further, the mutagenic call was “inactive; negative” (Test System: AMES SALMONELLA TYPHIMURIUM, Strain/Indicator: TA100, Metabolic Activation: RAT, LIVER, S-9, AROCLOR 1254, Method: STANDARD PLATE); “inactive; negative” (Test System: AMES SALMONELLA TYPHIMURIUM, Strain/Indicator: TA100, Metabolic Activation: RAT, LIVER, S-9, SODIUM PHENOBARBITAL, Method: STANDARD PLATE); “inactive; negative” (Test System: AMES SALMONELLA TYPHIMURIUM, Strain/Indicator: TA1535, Metabolic Activation: HAMSTER, LIVER, S-9, AROCLOR 1254 (10%), Method: PREINCUBATION); “inactive; negative” (Test System: AMES SALMONELLA TYPHIMURIUM, Strain/Indicator: TA1535, Metabolic Activation: HAMSTER, LIVER, S-9, AROCLOR 1254 (30%), Method: PREINCUBATION); “inactive; negative” (Test System: AMES SALMONELLA TYPHIMURIUM, Strain/Indicator: TA1535, Metabolic Activation: NONE, Method: PREINCUBATION); “inactive; negative” (Test System: AMES SALMONELLA TYPHIMURIUM, Strain/Indicator: TA1535, Metabolic Activation: NONE, Method: STANDARD PLATE). For the same compound, the mutagenic call (Test System: AMES SALMONELLA TYPHIMURIUM, Strain/Indicator: TA1535, Metabolic Activation: RAT, LIVER, S-9, AROCLOR 1254 (10%), Method: PREINCUBATION) was “inactive; negative”; the mutagenic call (Test System: AMES SALMONELLA TYPHIMURIUM, Strain/Indicator: TA1535, Metabolic Activation: RAT, LIVER, S-9, AROCLOR 1254 (30%), Method: PREINCUBATION) is “inactive; negative”; the mutagenic call (Test System: AMES SALMONELLA TYPHIMURIUM, Strain/Indicator: TA1535, Metabolic Activation: RAT, LIVER, S-9, AROCLOR 1254, Method: STANDARD PLATE) is “inactive; negative”; the mutagenic call (Test System: AMES SALMONELLA TYPHIMURIUM, Strain/Indicator: TA1535, Metabolic Activation: RAT, LIVER, S-9, SODIUM PHENOBARBITAL, Method: STANDARD PLATE) was “inactive; negative”; the mutagenic call (Test System: AMES SALMONELLA TYPHIMURIUM, Strain/Indicator: TA1537, Metabolic Activation: HAMSTER, LIVER, S-9, AROCLOR 1254 (10%), Method: PREINCUBATION) is “inactive; negative”; the mutagenic call (Test System: AMES SALMONELLA TYPHIMURIUM, Strain/Indicator: TA1537, Metabolic Activation: NONE, Method: PREINCUBATION) was “inactive; negative”. Besides, the mutagenic call by setting is: (Test System: AMES SALMONELLA TYPHIMURIUM, Strain/Indicator: TA1537, Metabolic Activation: NONE, Method: STANDARD PLATE) “inactive; negative”; (Test System: AMES SALMONELLA TYPHIMURIUM, Strain/Indicator: TA1537, Metabolic Activation: RAT, LIVER, S-9, AROCLOR 1254 (10%), Method: PREINCUBATION) “inactive; negative”; (Test System: AMES SALMONELLA TYPHIMURIUM, Strain/Indicator: TA1537, Metabolic Activation: RAT, LIVER, S-9, AROCLOR 1254, Method: STANDARD PLATE) “inactive; negative”; (Test System: AMES SALMONELLA TYPHIMURIUM, Strain/Indicator: TA1537, Metabolic Activation: RAT, LIVER, S-9, SODIUM PHENOBARBITAL, Method: STANDARD PLATE) “inactive; negative”; (Test System: AMES SALMONELLA TYPHIMURIUM, Strain/Indicator: TA1538, Metabolic Activation: NONE, Method: STANDARD PLATE) “inactive; negative”; (Test System: AMES SALMONELLA TYPHIMURIUM, Strain/Indicator: TA1538, Metabolic Activation: RAT, LIVER, S-9, AROCLOR 1254, Method: STANDARD PLATE) “inactive; negative”. Besides, the mutagenic call runs as follows: (Test System: AMES SALMONELLA TYPHIMURIUM, Strain/Indicator: TA1538, Metabolic Activation: RAT, LIVER, S-9, SODIUM PHENOBARBITAL, Method: STANDARD PLATE) “inactive; negative”; (Test System: CHINESE HAMSTER OVARY, Strain/Indicator: CHO-K1-BH4 (HGPRT)/6-THIOGUANINE, Metabolic Activation: NONE, Method: SUSPENSION/PLATE) “active; positive”; (Test System: CHINESE HAMSTER OVARY, Strain/Indicator: CHO-K1-BH4 (HGPRT), Metabolic Activation: NONE, Method: SUSPENSION/PLATE) “active; positive”; (Test System: MOUSE LYMPHOMA, Strain/Indicator: L5178Y (TK+/TK-), Metabolic Activation: RAT, LIVER, S-9, AROCLOR 1254, Method: SUSPENSION/PLATE) “active; positive. reevaluation of results: positive”.

`O=NN(C1CCCCC1)C1CCCCC1`: for the setting “End Point: IN VITRO MICRONUCLEUS, Test System: HUMAN LYMPHOCYTES, Metabolic Activation: NONE”, the mutagenic call was “active; positive”.

The record behind these values is PubChem BioAssay AID1259407 (Chemical Carcinogenesis Research Information System (CCRIS), 2018).
